Laboratory results reported in paper PMC6001238, “Iterative Chemical Engineering of Vancomycin Leads to Novel Vancomycin Analogs With a High in Vitro Therapeutic Index” (Frontiers in Microbiology, 2018).
Values after ≈ are worked out from the molar mass of the structure shown.

Tests used:
[1] = test system: S. aureus VSSA (ATCC 6538); test: MIC, broth microdilution, vancomycin-sensitive S. aureus (VSSA/MSSA, ATCC 6538); assay type: cell-based, Staphylococcus aureus; conditions: for MIC: Staphylococcus aureus VSSA, read-out: MIC; for MIC-fold improvement vs. vancomycin: VSSA, ratio of MIC of vancomycin and MIC of analogue
Procedure, shortened: (§1)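 MIC values come from broth microdilution run to CLSI susceptibility-testing standards. Ultrapure water and uninoculated broth served as controls. In one series, vancomycin at a final 10 μM was co-dosed with the analogue or comparator antibiotic.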

[2] = test system: S. aureus VRSA; test: MIC, broth microdilution, vancomycin-resistant S. aureus (VRSA); assay type: cell-based, Staphylococcus aureus; conditions: for MIC: Staphylococcus aureus VRSA, read-out: MIC; for MIC-fold improvement vs. vancomycin: VRSA, ratio of MIC of vancomycin and MIC of analogue
Procedure, shortened: as §1

[3] = test system: MRSA KS2; test: MIC, broth microdilution, MRSA KS2; assay type: cell-based, Staphylococcus aureus; conditions: for MIC-fold improvement vs. vancomycin: MRSA KS2, ratio of MIC of vancomycin and MIC of analogue; for MIC: Staphylococcus aureus MRSA KS2, read-out: MIC
Procedure, shortened: as §1

[4] = test system: human cervix carcinoma (HeLa) cells; test: Cytostatic activity, HeLa cell proliferation; assay type: cell-based; conditions: mean ± SD of three experiments; highest concentration tested 250 µM; 4 days; read-out: Toxicity (IC50) HeLa
Procedure, shortened: (§2)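 Coulter counter cell counts after 37°C culture with compound; IC50 = concentration giving 50% growth inhibition vs negative control. Incubation: L1210 2 d, CEM 3 d, HeLa 4 d. Suspension density before mixing with an equal volume of dilution: 300,000–500,000 cells/mL.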

[5] = test system: MRSA KS6; test: MIC, broth microdilution, MRSA KS6; assay type: cell-based, Staphylococcus aureus; conditions: for MIC-fold improvement vs. vancomycin: MRSA KS6, ratio of MIC of vancomycin and MIC of analogue; for MIC: Staphylococcus aureus MRSA KS6, read-out: MIC
Procedure, shortened: as §1

[6] = test system: E. faecalis VRE 53; test: MIC, broth microdilution, vancomycin-resistant E. faecalis VRE 53 (VanA); assay type: cell-based, Enterococcus faecalis; conditions: for MIC: Enterococcus faecalis VRE 53 (vancomycin-resistant), read-out: MIC; for MIC-fold improvement vs. vancomycin: VRE 53, ratio of MIC of vancomycin and MIC of analogue
Procedure, shortened: as §1

[7] = test system: E. faecalis VRE 37; test: MIC, broth microdilution, vancomycin-resistant E. faecalis VRE 37 (VanA); assay type: cell-based, Enterococcus faecalis; conditions: for MIC: Enterococcus faecalis VRE 37 (vancomycin-resistant), read-out: MIC; for MIC-fold improvement vs. vancomycin: VRE 37, ratio of MIC of vancomycin and MIC of analogue
Procedure, shortened: as §1

[8] = test system: MRSA KS89; test: MIC, broth microdilution, MRSA KS89; assay type: cell-based, Staphylococcus aureus; conditions: for MIC-fold improvement vs. vancomycin: MRSA KS8, ratio of MIC of vancomycin and MIC of analogue; for MIC: Staphylococcus aureus MRSA KS8, read-out: MIC
Procedure, shortened: as §1

[9] = test system: human T-lymphocyte (CEM) cells; test: Cytostatic activity, CEM cell proliferation; assay type: cell-based; conditions: mean ± SD of three experiments; highest concentration tested 250 µM; 3 days; read-out: Toxicity (IC50) CEM
Procedure, shortened: as §2

[10] = test system: E. faecalis VSE 1; test: MIC, broth microdilution, vancomycin-sensitive E. faecalis (VSE 1); assay type: cell-based, Enterococcus faecalis; conditions: for MIC: Enterococcus faecalis VSE 1 (vancomycin-sensitive), read-out: MIC; for MIC-fold improvement vs. vancomycin: VSE 1, ratio of MIC of vancomycin and MIC of analogue
Procedure, shortened: as §1

[11] = test system: E. faecalis VRE 6; test: MIC, broth microdilution, vancomycin-resistant E. faecalis VRE 6 (VanA); assay type: cell-based, Enterococcus faecalis; conditions: for MIC: Enterococcus faecalis VRE 6 (vancomycin-resistant), read-out: MIC; for MIC-fold improvement vs. vancomycin: VRE 6, ratio of MIC of vancomycin and MIC of analogue
Procedure, shortened: as §1

[12] = test system: L1210, CEM and HeLa cell lines; test: Cytostatic activity, average or summary over L1210, CEM and HeLa; assay type: cell-based; conditions: average of L1210, CEM and HeLa; read-out: Toxicity (IC50) Average
Procedure, shortened: as §2

[13] = test system: Murine leukemia (L1210) cells; test: Cytostatic activity, L1210 cell proliferation; assay type: cell-based; conditions: mean ± SD of three experiments; highest concentration tested 250 µM; 2 days; read-out: Toxicity (IC50) L1210
Procedure, shortened: as §2

[14] = test system: E. faecalis VRE 29; test: MIC, broth microdilution, vancomycin-resistant E. faecalis VRE 29 (VanA); assay type: cell-based, Enterococcus faecalis; conditions: for MIC: Enterococcus faecalis VRE 29 (vancomycin-resistant), read-out: MIC; for MIC-fold improvement vs. vancomycin: VRE 29, ratio of MIC of vancomycin and MIC of analogue
Procedure, shortened: as §1

[15] = test system: MRSA KS1; test: MIC, broth microdilution, MRSA KS1; assay type: cell-based, Staphylococcus aureus; conditions: for MIC-fold improvement vs. vancomycin: MRSA KS1, ratio of MIC of vancomycin and MIC of analogue; for MIC: Staphylococcus aureus MRSA KS1, read-out: MIC
Procedure, shortened: as §1

[16] = test system: S. aureus VISA/HIP5827; test: MIC, broth microdilution, vancomycin-intermediate S. aureus VISA HIP5827; assay type: cell-based, Staphylococcus aureus; conditions: for MIC: Staphylococcus aureus VISA/HIP5827, read-out: MIC; for MIC-fold improvement vs. vancomycin: VISA/HIP5827, ratio of MIC of vancomycin and MIC of analogue
Procedure, shortened: as §1

SMILES	MIC [1]	MIC-fold improvement vs. vancomycin [1]	MIC [2]	MIC-fold improvement vs. vancomycin [2]	MIC-fold improvement vs. vancomycin [3]	MIC [3]	IC50 [4]	MIC-fold improvement vs. vancomycin [5]	MIC [5]	MIC [6]	MIC-fold improvement vs. vancomycin [6]	MIC [7]	MIC-fold improvement vs. vancomycin [7]	MIC-fold improvement vs. vancomycin [8]	MIC [8]	IC50 [9]	MIC [10]	MIC-fold improvement vs. vancomycin [10]	MIC [11]	MIC-fold improvement vs. vancomycin [11]	further results
CN[C@H](CC(C)C)C(=O)N[C@H]1C(=O)N[C@@H](CC(N)=O)C(=O)N[C@H]2C(=O)N[C@H]3C(=O)N[C@H](C(=O)N[C@H](C(=O)NCC(=O)Nc4cc(C)ccc4O)c4cc(O)cc(O)c4-c4cc3ccc4O)[C@H](O)c3ccc(c(Cl)c3)Oc3cc2cc(c3O[C@@H]2O[C@H](CO)[C@@H](O)[C@H](O)[C@H]2O[C@H]2C[C@](C)(N)[C@H](O)[C@H](C)O2)Oc2ccc(cc2Cl)[C@H]1O [Vanc-18]	0.78 µM (≈ 1.26 µg/mL)	1	25 µM (≈ 40.3 µg/mL)	4	2	0.39 µM (≈ 0.628 µg/mL)	> 250 µM	1	0.78 µM (≈ 1.26 µg/mL)	25 µM (≈ 40.3 µg/mL)	16	50 µM (≈ 80.6 µg/mL)	8	1	0.78 µM (≈ 1.26 µg/mL)	> 250 µM	1.56 µM (≈ 2.51 µg/mL)	1	12.5 µM (≈ 20.1 µg/mL)	16	IC50 [12]: > 250 µM; IC50 [13]: > 250 µM; MIC [14]: 25 µM (≈ 40.3 µg/mL); MIC-fold improvement vs. vancomycin [14]: 16; MIC-fold improvement vs. vancomycin [15]: 1; MIC [15]: 0.78 µM (≈ 1.26 µg/mL); MIC [16]: 0.78 µM (≈ 1.26 µg/mL); MIC-fold improvement vs. vancomycin [16]: 8
CCc1cccc(C)c1NC(=O)CNC(=O)C1NC(=O)C2NC(=O)C(NC(=O)C3NC(=O)C(CC(N)=O)NC(=O)C(NC(=O)C(CC(C)C)NC)C(O)c4ccc(c(Cl)c4)Oc4cc3cc(c4OC3OC(CO)C(O)C(O)C3OC3CC(C)(N)C(O)C(C)O3)Oc3ccc(cc3Cl)C2O)c2ccc(O)c(c2)-c2c(O)cc(O)cc21 (centres unmarked) [Vanc-19]	0.78 µM (≈ 1.27 µg/mL)	1	12.5 µM (≈ 20.3 µg/mL)	8	1	0.78 µM (≈ 1.27 µg/mL)	63 ± 5 µM	0.5	1.56 µM (≈ 2.53 µg/mL)	25 µM (≈ 40.6 µg/mL)	16	25 µM (≈ 40.6 µg/mL)	16	1	0.78 µM (≈ 1.27 µg/mL)	> 250 µM	1.56 µM (≈ 2.53 µg/mL)	1	3.13 µM (≈ 5.08 µg/mL)	64	IC50 [12]: 188 µM; IC50 [13]: > 250 µM; MIC [14]: 12.5 µM (≈ 20.3 µg/mL); MIC-fold improvement vs. vancomycin [14]: 32; MIC-fold improvement vs. vancomycin [15]: 1; MIC [15]: 0.78 µM (≈ 1.27 µg/mL); MIC [16]: 3.13 µM (≈ 5.08 µg/mL); MIC-fold improvement vs. vancomycin [16]: 2
